What all share (type): biochemical
The target in one assay is T1, FGFR4 (Homo sapiens, UniProt P22455).
T1 construct: FGFR4's cytoplasmic domain [460-802 (terminal) amino acids]; purchased Carna 08-136
The experiment in a line: FGFR4 kinase activity inhibition assay (LanthaScreen TR-FRET). Particulars: FGFR4 kinase, TR-FRET; read-out: IC50 (nM) FGFR4. Put shortly:
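GST-tagged cytoplasmic domains (FGFR2 aa 399-821; FGFR4 aa 460-802) were preincubated 10 min at 23 °C with compound (top 1 µM, threefold dilutions). Then 28 nM fluorescein-poly GT and 28 µM ATP were added for 30 min at 23 °C in HEPES pH 7.5 buffer. Tb-PY20 TR-FRET 520/495 ratio gave % inhibition versus DMSO and no-enzyme controls.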
(In general: Time-resolved FRET reads energy transfer from a long-lived donor to a nearby acceptor.)

The next assay addresses T2, FGFR1 (Homo sapiens, UniProt P11362).
T2 construct: cytoplasmic domain [398-822 (terminal) amino acids]; purchased Carna 08-133
The experiment in a line: FGFR1 kinase activity inhibition assay (LanthaScreen TR-FRET). As to conditions: FGFR1 kinase, TR-FRET; read-out: IC50 (nM) FGFR1. Put shortly: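 Emission ratio 520 nm/495 nm by TR-FRET after stopping reaction with 10 mM EDTA and 60 min incubation at 22°C. Inhibition normalized between no-enzyme (min) and DMSO (max) controls, then fitted to a four-parameter curve (Top, Bottom, HillSlope).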

A further assay has as its target T3, FGFR2 (Homo sapiens, UniProt P21802).
T3 construct: FGFR2's cytoplasmic domain [399-821 (terminal) amino acids]; purchased Carna 08-134
The experiment in a line: FGFR2 kinase activity inhibition assay (LanthaScreen TR-FRET). As to conditions: FGFR2 kinase, TR-FRET; read-out: IC50 (nM) FGFR2. The essentials:
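GST-fused FGFR2 cytoplasmic domain (aa 399-821) was run as in the FGFR1 protocol: preincubated 10 min at 23 °C with compound (3-fold series from 1 µM) in 50 mM HEPES pH 7.5, 10 mM MgCl2, 4 mM DTT, 1% DMSO. A 2× mix of 28 nM fluorescein-poly GT/28 µM ATP then reacted 30 min. Tb-PY20/EDTA quench preceded the TR-FRET 520/495 read.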

The target in a further assay is T4, FGFR3 (Homo sapiens, UniProt P22607).
T4 construct: FGFR3's cytoplasmic domain [436-806 (terminal) amino acids]; purchased Carna 08-135
T4 sequence (P22607 436-806): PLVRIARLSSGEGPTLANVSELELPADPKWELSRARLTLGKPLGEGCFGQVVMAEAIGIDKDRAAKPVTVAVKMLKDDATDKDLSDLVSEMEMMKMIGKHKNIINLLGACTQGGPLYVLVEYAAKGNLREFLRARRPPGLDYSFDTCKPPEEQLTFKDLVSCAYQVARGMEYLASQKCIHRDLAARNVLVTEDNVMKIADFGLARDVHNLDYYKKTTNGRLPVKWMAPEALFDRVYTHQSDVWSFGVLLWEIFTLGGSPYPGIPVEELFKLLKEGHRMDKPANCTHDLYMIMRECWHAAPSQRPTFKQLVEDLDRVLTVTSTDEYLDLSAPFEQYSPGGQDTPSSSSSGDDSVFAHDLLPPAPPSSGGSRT
The experiment in a line: FGFR3 kinase activity inhibition assay (LanthaScreen TR-FRET). Particulars: for IC50: FGFR3 kinase, TR-FRET, read-out: IC50 (nM) FGFR3; for Selectivity (X) FGFR1/FGFR3: ratio of IC50 FGFR1/FGFR3, selectivity towards FGFR3; for Selectivity (X) FGFR2/FGFR3: ratio of IC50 FGFR2/FGFR3, selectivity towards FGFR3; for Selectivity (X) FGFR4/FGFR3: ratio of IC50 FGFR4/FGFR3, selectivity towards FGFR3. Put shortly:
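Read-out is TR-FRET, with the 520 nm/495 nm emission ratio normalised to DMSO (max) and enzyme-free (min) controls. Enzyme was the FGFR3 cytoplasmic domain, residues 436-806. EDTA (10 mM) stopped the reaction, followed by 60 min at 22 °C before reading.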

Each structure is given as a SMILES string.

By IC50 is commonly meant the midpoint of a concentration-inhibition curve.

T2 sequence (P11362 398-822): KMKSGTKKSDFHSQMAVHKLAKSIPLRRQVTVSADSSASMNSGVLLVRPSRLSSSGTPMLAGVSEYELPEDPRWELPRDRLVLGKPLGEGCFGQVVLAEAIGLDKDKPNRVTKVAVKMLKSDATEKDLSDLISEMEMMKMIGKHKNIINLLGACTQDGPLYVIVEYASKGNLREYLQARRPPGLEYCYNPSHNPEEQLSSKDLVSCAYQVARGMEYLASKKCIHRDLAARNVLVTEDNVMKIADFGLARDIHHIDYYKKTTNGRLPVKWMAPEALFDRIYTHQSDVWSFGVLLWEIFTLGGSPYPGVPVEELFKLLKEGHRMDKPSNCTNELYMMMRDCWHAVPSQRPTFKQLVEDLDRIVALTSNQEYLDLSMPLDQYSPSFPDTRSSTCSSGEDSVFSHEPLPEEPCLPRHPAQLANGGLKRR
T3 sequence (P21802 399-821): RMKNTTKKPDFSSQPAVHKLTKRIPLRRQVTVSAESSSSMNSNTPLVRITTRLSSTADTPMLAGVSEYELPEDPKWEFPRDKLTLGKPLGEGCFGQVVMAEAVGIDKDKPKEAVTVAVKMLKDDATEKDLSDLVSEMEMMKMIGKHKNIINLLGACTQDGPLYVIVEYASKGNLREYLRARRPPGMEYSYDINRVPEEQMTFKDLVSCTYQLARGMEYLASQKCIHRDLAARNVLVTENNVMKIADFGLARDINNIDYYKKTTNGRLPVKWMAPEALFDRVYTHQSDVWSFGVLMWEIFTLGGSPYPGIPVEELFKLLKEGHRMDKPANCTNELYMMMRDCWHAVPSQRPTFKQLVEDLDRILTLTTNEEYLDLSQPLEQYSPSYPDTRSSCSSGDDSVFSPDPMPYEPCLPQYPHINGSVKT
T1 sequence (P22455 460-802): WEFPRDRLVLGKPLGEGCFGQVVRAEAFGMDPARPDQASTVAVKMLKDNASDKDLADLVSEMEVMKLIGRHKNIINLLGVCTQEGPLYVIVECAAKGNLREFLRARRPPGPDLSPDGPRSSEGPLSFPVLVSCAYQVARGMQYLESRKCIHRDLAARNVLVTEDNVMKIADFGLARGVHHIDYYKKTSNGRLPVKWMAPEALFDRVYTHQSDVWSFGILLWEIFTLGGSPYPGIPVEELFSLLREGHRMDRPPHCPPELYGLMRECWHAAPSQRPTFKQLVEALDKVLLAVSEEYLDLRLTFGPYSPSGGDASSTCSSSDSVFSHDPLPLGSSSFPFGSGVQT

With `CC(Oc1ccc2[nH]nc(-c3cnn(C)c3)c2c1)c1nccc2nccnc12` (stereo not shown) [Example 157, 5-(1-((3-(1-methyl-1H-pyrazol-4-yl)-1H-indazol-5-yl)oxy)ethyl)py ridino[3,4-b]pyrazine], the IC50 on FGFR4 fell in the range of 10 to 100 nM. Besides, the IC50 on FGFR1 is 10 to 100 nM. The IC50 on FGFR2 is 1 to 10 nM. For the same compound, at FGFR3, the IC50 lay within 1 to 10 nM, the “Selectivity (X) FGFR1/FGFR3” value is recorded as “A (A represents 1 ≤ multiple X<20)”, the “Selectivity (X) FGFR2/FGFR3” value is “A (A represents 1 ≤ multiple X<20)” and the “Selectivity (X) FGFR4/FGFR3” value is listed as “A (A represents 1 ≤ multiple X<20)”.

On to `CC(Oc1ccc2[nH]nc(-c3cnn(C4CN(C)C4)c3)c2c1)c1cccc2nccnc12` (stereo not shown) [Example 158, 5-(1-((3-(1-(1-methylazetidin-3-yl)-1H-pyrazol-4-yl)-1H-indazol-5-yl)oxy)ethyl)q uinoxaline], for which the IC50 at FGFR4 was in the range of 10 to 100 nM. Besides, the IC50 at FGFR1 was in the range of 10 to 100 nM. For the same compound, the IC50 at FGFR2 fell in the range of 1 to 10 nM. In addition, at FGFR3, the IC50 is 1 to 10 nM, the “Selectivity (X) FGFR1/FGFR3” value was “B (B represents 20 ≤ multiple X<50)”, the “Selectivity (X) FGFR2/FGFR3” value was “A (A represents 1 ≤ multiple X<20)” and the “Selectivity (X) FGFR4/FGFR3” value is “C (C represents 50 ≤ multiple X<100)”.

For the compound `Cc1c(F)cc2ncccc2c1C(C)Oc1ccc2[nH]nc(-c3cnn(C)c3)c2c1` (stereo not shown) [Example 161, 7-fluoro-6-methyl-5-(1-((3-(1-methyl-1H-pyrazol-4-yl)-1H-indazol-5-yl)oxy)ethyl)quinoline], the IC50 on FGFR4 fell in the range of 10 to 100 nM. Besides, the IC50 at FGFR1 was in the range of 10 to 100 nM. The IC50 on FGFR2 lay within 10 to 100 nM. Further, at FGFR3, the IC50 was in the range of 1 to 10 nM, the “Selectivity (X) FGFR1/FGFR3” value was “B (B represents 20 ≤ multiple X<50)”, the “Selectivity (X) FGFR2/FGFR3” value is given as “A (A represents 1 ≤ multiple X<20)” and the “Selectivity (X) FGFR4/FGFR3” value is “B (B represents 20 ≤ multiple X<50)”.

Turning to `CC(Oc1ccc2[nH]nc(-c3cnn(C4CC(N(C)C)C4)c3)c2c1)c1cccc2nccnc12` (stereo not shown) [Example 170, N,N-dimethyl-3-(4-(5-(1-(quinoxalin-5-yl)ethoxy)-1H-indazol-3-yl)-1H-pyrazol-1-yl)cyclobutan-1-amine], the IC50 at FGFR4 was 10 to 100 nM; on FGFR1 it was 1 to 10 nM; on FGFR2 it was 1 to 10 nM; at FGFR3, below 1 nM. Further, the “Selectivity (X) FGFR1/FGFR3” value at FGFR3 was “A (A represents 1 ≤ multiple X<20)”. Moreover, the “Selectivity (X) FGFR2/FGFR3” value on FGFR3 is “A (A represents 1 ≤ multiple X<20)”. For the same compound, at FGFR3, the “Selectivity (X) FGFR4/FGFR3” value is “C (C represents 50 ≤ multiple X<100)”.

With `Cc1cc(C(C)Oc2ccc3[nH]nc(-c4cnn(C)c4)c3c2)c2ccnn2c1` (stereo not shown) [Example 171, 3-(1-methyl-1H-pyrazol-4-yl)-5-(1-(6-methylpyrazolo [1,5-a]pyridin-4-yl)ethoxy)-1H-indazole], at FGFR4, the IC50 was in the range of 10 to 100 nM. Moreover, on FGFR1, the IC50 lay within 10 to 100 nM. In addition, the IC50 on FGFR2 was 1 to 10 nM. Moreover, on FGFR3, the IC50 was below 1 nM, the “Selectivity (X) FGFR1/FGFR3” value is recorded as “B (B represents 20 ≤ multiple X<50)”, the “Selectivity (X) FGFR2/FGFR3” value is reported as “A (A represents 1 ≤ multiple X<20)” and the “Selectivity (X) FGFR4/FGFR3” value was “B (B represents 20 ≤ multiple X<50)”.

As for `CC(Oc1ccc2[nH]nc(-c3cnn(CCCS(C)(=N)=O)c3)c2c1)c1cc(Cl)cc2nccnc12` (stereo not shown) [Example 173, (3-(4-(5-(1-(7-chloroquinoxalin-5-yl)ethoxy)-1H-indazol-3-yl)-1H-pyrazol-1-yl)propyl)(imino)(methyl)-sulfanone], the IC50 on FGFR4 is 10 to 100 nM; on FGFR1 it was 1 to 10 nM; on FGFR2, 1 to 10 nM; at FGFR3, below 1 nM. Also, the “Selectivity (X) FGFR1/FGFR3” value at FGFR3 was “A (A represents 1 ≤ multiple X<20)”. Besides, the “Selectivity (X) FGFR2/FGFR3” value on FGFR3 was “A (A represents 1 ≤ multiple X<20)”. The “Selectivity (X) FGFR4/FGFR3” value at FGFR3 is recorded as “B (B represents 20 ≤ multiple X<50)”.

With `CC(Oc1ccc2[nH]nc(-c3cnn(C)c3)c2c1)c1cc(Cl)cn2nccc12` (stereo not shown) [Example 174, 5-(1-(6-chloropyrazolo[1,5-a]pyridin-4-yl)ethoxy)-3-(1-methyl-1H-pyrazol-4-yl)-1H-indazole], the IC50 on FGFR4 fell in the range of 10 to 100 nM. For the same compound, on FGFR1, the IC50 is 10 to 100 nM. In addition, the IC50 at FGFR2 fell in the range of 1 to 10 nM. Further, on FGFR3, the 50% inhibitory concentration (IC50) is below 1 nM, the “Selectivity (X) FGFR1/FGFR3” value is “B (B represents 20 ≤ multiple X<50)”, the “Selectivity (X) FGFR2/FGFR3” value is listed as “B (B represents 20 ≤ multiple X<50)” and the “Selectivity (X) FGFR4/FGFR3” value is “D (D represents 100 ≤ multiple X)”.

Turning to `[2H]C([2H])([2H])c1ccc2ncccc2c1C(C)Oc1ccc2[nH]nc(-c3cnn(C)c3)c2c1` (stereo not shown) [Example 187, 6-(methyl-d3) - 5-(1-((3-(1-methyl-1H-pyrazol-4-yl)-1H-indazol-5-yl)oxy)ethyl)qu inoline], the IC50 on FGFR4 lay in the range of 10 to 100 nM. Further, the IC50 at FGFR1 fell in the range of 10 to 100 nM. Further, the concentration for half-maximal inhibition (IC50) on FGFR2 was 10 to 100 nM. For the same compound, on FGFR3, the IC50 fell in the range of 1 to 10 nM, the “Selectivity (X) FGFR1/FGFR3” value is on record as “B (B represents 20 ≤ multiple X<50)”, the “Selectivity (X) FGFR2/FGFR3” value is reported as “A (A represents 1 ≤ multiple X<20)” and the “Selectivity (X) FGFR4/FGFR3” value was “B (B represents 20 ≤ multiple X<50)”.

As for `CC(Oc1ccc2[nH]nc(-c3cnn(C4CN(C(=O)CO)C4)c3)c2c1)c1cc(Cl)cc2ncccc12` (stereo not shown) [Example 189, 1-(3-(4-(5-(1-(7-chloroquinolin-5-yl)ethoxy)-1H-indazol-3-yl)-1H-pyrazol-1-yl)azetidin-1-yl)-2-hydroxyethan-1-one], the IC50 on FGFR4 was in the range of 10 to 100 nM. Also, the IC50 on FGFR1 is above 100 nM. The IC50 on FGFR2 is 10 to 100 nM. Moreover, on FGFR3, the IC50 was below 1 nM, the “Selectivity (X) FGFR1/FGFR3” value was “D (D represents 100 ≤ multiple X)”, the “Selectivity (X) FGFR2/FGFR3” value is given as “B (B represents 20 ≤ multiple X<50)” and the “Selectivity (X) FGFR4/FGFR3” value was “C (C represents 50 ≤ multiple X<100)”.

For `Cc1cn2nccc2c(C(C)Oc2ccc3[nH]nc(-c4cnn(C)c4)c3c2)n1` (stereo not shown) [Example 191, 6-methyl-4-(1-((3-(1-methyl-1H-pyrazol-4-yl)-1H-indazol-5-yl)oxy)ethyl)py razolo[1,5-a]pyrazine], the IC50 at FGFR4 was in the range of 10 to 100 nM. The IC50 on FGFR1 lay within 10 to 100 nM. Also, the IC50 at FGFR2 is 1 to 10 nM. Moreover, on FGFR3, the IC50 is below 1 nM, the “Selectivity (X) FGFR1/FGFR3” value is on record as “C (C represents 50 ≤ multiple X<100)”, the “Selectivity (X) FGFR2/FGFR3” value was “A (A represents 1 ≤ multiple X<20)” and the “Selectivity (X) FGFR4/FGFR3” value is on record as “C (C represents 50 ≤ multiple X<100)”.

Consider `CC(Oc1ccc2[nH]nc(-c3cnn(C4CN(S(=O)(=O)N(C)C)C4)c3)c2c1)c1cccc2nccnc12` (stereo not shown) [Example 194, N,N-dimethyl-3-(4-(5-(1-(quinoxalin-5-yl)ethoxy)-1H-indazol-3-yl)-1H-pyrazol-1-yl)azetidine-1-sulfonamide], for which the IC50 at FGFR4 fell in the range of 10 to 100 nM. In addition, at FGFR1, the concentration for half-maximal inhibition (IC50) was in the range of 10 to 100 nM. On FGFR2, the IC50 lay in the range of 1 to 10 nM. On FGFR3, the concentration for half-maximal inhibition (IC50) was below 1 nM, the “Selectivity (X) FGFR1/FGFR3” value is on record as “B (B represents 20 ≤ multiple X<50)”, the “Selectivity (X) FGFR2/FGFR3” value is reported as “A (A represents 1 ≤ multiple X<20)” and the “Selectivity (X) FGFR4/FGFR3” value is given as “C (C represents 50 ≤ multiple X<100)”.

With `CC(Oc1ccc2[nH]nc(-c3cnn(C4CN(S(C)(=O)=O)C4)c3)c2c1)c1cccc2nccnc12` (stereo not shown) [Example 195], the IC50 at FGFR4 lay within 10 to 100 nM. Besides, the IC50 on FGFR1 is 10 to 100 nM. Besides, the IC50 at FGFR2 was in the range of 1 to 10 nM. In addition, at FGFR3, the IC50 is below 1 nM, the “Selectivity (X) FGFR1/FGFR3” value is listed as “B (B represents 20 ≤ multiple X<50)”, the “Selectivity (X) FGFR2/FGFR3” value was “A (A represents 1 ≤ multiple X<20)” and the “Selectivity (X) FGFR4/FGFR3” value is listed as “B (B represents 20 ≤ multiple X<50)”.

On to `CC(Oc1ccc2[nH]nc(-c3cnn(C)c3)c2n1)c1c(C(F)F)ccc2ncccc12` (stereo not shown) [Example 203], for which the IC50 at FGFR4 is 10 to 100 nM. At FGFR1, the IC50 lay within 10 to 100 nM. For the same compound, on FGFR2, the 50% inhibitory concentration (IC50) lay within 10 to 100 nM. On FGFR3, the IC50 was below 1 nM, the “Selectivity (X) FGFR1/FGFR3” value is on record as “B (B represents 20 ≤ multiple X<50)”, the “Selectivity (X) FGFR2/FGFR3” value is on record as “B (B represents 20 ≤ multiple X<50)” and the “Selectivity (X) FGFR4/FGFR3” value was “C (C represents 50 ≤ multiple X<100)”.

Source of the values: patent EP4644383A1 (Jiangsu Yahong Meditech Co., Ltd., priority 2022, dated 2024).
